{
  "source": "patent US4187245A",
  "about": "“Hydroxypropylene-amino-phosphonic-sulfonic acids” (Petrolite Corporation, priority 1978, dated 1980)",
  "key": {"[1]": {"experiment": "Calcium Scale Inhibition Test", "conditions": "180° F., samples at 2 and 4 hours", "description": "Calcium Scale Inhibition Test\nThe procedure utilized to determine the effectiveness of scale inhibitors in regard to calcium scale is as follows:\nSeveral 50 ml. samples of a 0.04 sodium bicarbonate solution are placed in 100 ml. bottles. To these solutions is added the inhibitor in various known concentrations. 50 ml. samples of a 0.02 M CaCl2 solution are then added.\nA total hardness determination is then made on the 50--50 mixture utilizing the well known Schwarzenbach titration. The samples are placed in a water bath and heated at 180° F. 10 ml. samples are taken from each bottle at 2 and 4 hour periods. These samples are filtered through millipore filters and the total hardness of the filtrates are determined by titration. [formula]"}, "[2]": {"conditions": "prior-art background; cited from earlier work"}},
  "note": "Where a name gives a salt, the structure may show the parent alone.",
  "data": [
    {"compound": "NCCNCC(O)CS(=O)(=O)O", "note": "(stereo not drawn) [Example 7]", "values": [
      {"measurement": "% Inhibition (Calcium Scale Inhibition)", "setting": "[1]; 50 ppm", "result": 50, "unit": "%"}
    ]},
    {"compound": "O=S(=O)(O)CC(O)CNCCNCC(O)CS(=O)(=O)O", "note": "(stereo not drawn) [Example 8]", "values": [
      {"measurement": "% Inhibition (Calcium Scale Inhibition)", "setting": "[1]; 50 ppm", "result": 45, "unit": "%"}
    ]},
    {"compound": "NCCNCCNCC(O)CS(=O)(=O)O", "note": "(stereo not drawn) [Example 9]", "values": [
      {"measurement": "% Inhibition (Calcium Scale Inhibition)", "setting": "[1]; 50 ppm", "result": 45, "unit": "%"}
    ]},
    {"compound": "O=S(=O)(O)CC(O)CNCCNCCNCC(O)CS(=O)(=O)O", "note": "(stereo not drawn) [Example 10]", "values": [
      {"measurement": "% Inhibition (Calcium Scale Inhibition)", "setting": "[1]; 25 ppm", "result": 45, "unit": "%"}
    ]},
    {"compound": "O=P(O)(O)CN(CCN(CP(=O)(O)O)CP(=O)(O)O)CC(O)CS(=O)(=O)O", "note": "(stereo not drawn) [Example 16]", "values": [
      {"measurement": "% Inhibition (Calcium Scale Inhibition)", "setting": "[1]; 10 ppm", "result": 91, "unit": "%"},
      {"measurement": "% Inhibition (Calcium Scale Inhibition)", "setting": "[1]; 25 ppm", "result": 100, "unit": "%"}
    ]},
    {"compound": "O=P(O)(O)CN(CCN(CC(O)CS(=O)(=O)O)CP(=O)(O)O)CC(O)CS(=O)(=O)O", "note": "(stereo not drawn) [Example 17]", "values": [
      {"measurement": "% Inhibition (Calcium Scale Inhibition)", "setting": "[1]; 15 ppm", "result": 72, "unit": "%"},
      {"measurement": "% Inhibition (Calcium Scale Inhibition)", "setting": "[1]; 25 ppm", "result": 96, "unit": "%"},
      {"measurement": "% Inhibition (Calcium Scale Inhibition)", "setting": "[1]; 50 ppm", "result": 100, "unit": "%"}
    ]},
    {"compound": "O=P(O)(O)CN(CCN(CC(O)CS(=O)(=O)O)CP(=O)(O)O)CCN(CC(O)CS(=O)(=O)O)CP(=O)(O)O", "note": "(stereo not drawn) [Example 19]", "values": [
      {"measurement": "% Inhibition (Calcium Scale Inhibition)", "setting": "[1]; 25 ppm", "result": 86, "unit": "%"},
      {"measurement": "% Inhibition (Calcium Scale Inhibition)", "setting": "[1]; 50 ppm", "result": 100, "unit": "%"}
    ]},
    {"compound": "O=C(O)CN(CCN(CC(=O)O)CC(=O)O)CC(=O)O", "note": "[ethylenediamine tetracetic acid salts]", "values": [
      {"measurement": "threshold activities", "setting": "[2]", "result": "no threshold activities"}
    ]}
  ]
}
